Test results: US20180153830A1, “SELECTIVE INHIBITORS OF UNDIFFERENTIATED CELLS” (Yissum Research Development Company of the Hebrew …, priority 2012, published 2018)

Tests used:
[1] = test system: spliced isoform sXBP1 in ES-derived differentiated cells; test: sXBP1 quantitative PCR, differentiated cells; format: cell-based, human; conditions: 20 μM PluriSIn #1 or 100 nm A939572
[2] = test system: caspase-3 in embryonic stem cells; test: Immunoblotting for caspase-3; format: cell-based, human; conditions: 20 μM
Procedure: For immunoblotting, 10% polyacrylamide gel was used for protein separation and detection. The gel was transferred to a nitrocellulose membrane and antibody hybridization and chemiluminescence were performed according to standard procedures. The primary antibodies in this analysis were rabbit anti-phosphorylated-eIF2a (1:250, Cell Signaling Technology), rabbit anti caspase-3 (1:1,000, Cell Signaling Technology), mouse anti β-catenin (1:10,000, BD Biosciences) and mouse anti-α-tubulin (1:50,000, Sigma-Aldrich). Horseradish peroxidase-conjugated anti-rabbit and anti-mouse secondary antibodies were obtained from Jackson Immunoresearch Laboratories.
The finding of gene expression associated with apoptosis is consistent with previous reports that pluripotent cells are prone to apoptosis [Qin et al., Journal of Biological Chemistry 282:5842-5852 (2007); Momcilovic et al., PloS One 5:e13410 (2010)]. However, pluripotent cells have also been reported to be susceptible to other types of cell death, such as oncosis [Tan et al., Stem Cells 27:1792-1801 (2009)] and autophagy [Alexander et al., PNAS 108:15828-15833 (2011)]. An Annexin V-FITC detection assay and immunoblotting for caspase-3 (a hallmark executioner of apoptosis) were therefore used in order to confirm that the massive hPSC death induced by PluriSIn #1 is indeed apoptosis.

[3] = test system: protein synthesis in BJ fibroblasts; test: 35S-Met metabolic labeling of protein synthesis, fibroblasts; format: cell-based, human; conditions: 12 hours, 20 μM
Procedure: H9 embryonic stem cells were seeded in Matrigel™ pre-coated 6-well tissue culture plates at a density of 2×10^5 cells/well, and cultured using mTeSR1 defined medium. BJ fibroblasts were seeded in 6-well tissue culture plate at the same density, and cultured with DMEM supplemented with 10% FBS, penicillin (50 U/ml) and streptomycin (50 μg/ml). Cells were treated for 12 hours with either 20 μM PluriSIn #1 (isonicotinic acid N′-phenylhydrazide) or with 0.2% DMSO. Cells were then washed with PBS, and replenished with methionine-deficient medium for 1 hour. Metabolic labeling of the cells was then performed for 1 hour with 10 μCi of […] methionine in 1 ml/well, in the presence of 20 μM PluriSIn #1 or 0.2% DMSO. Cells were washed with PBS containing 10 mM methionine, and were then lysed in 0.4 ml of 30% ice-cold trichloroacetic acid (TCA) containing 10 mM methionine for 15 minutes. […] Total protein concentration was determined using a Bradford Protein Assay (Sigma-Aldrich), and the radioactivity measurements were normalized accordingly. […]
The similarity between PSIs and PluriSIn #1 and #6 is consistent with the fact that UPR can lead to translational attenuation. In order to confirm this link, the effect of PluriSIn #1 treatment on protein synthesis was determined. […]

[4] = test system: pluripotent cells in mixed cell population (differentiated and undifferentiated CSES2-SO2/3 cells); test: FACS analysis of TRA-1-60 in mixed cell populations; format: cell-based, human; conditions: 48 hours, 6-well plates
Procedure: For quantification of remaining undifferentiated cells after treatment, cells were treated with 20 μM PluriSIn #1 (isonicotinic acid N′-phenylhydrazide) for 48 hours or 72 hours, dissociated using TrypLE™ Select (Invitrogen), and washed with PBS supplemented with 10% FBS and 0.05% sodium azide. Dissociated cells were suspended to a final concentration of 10^6 cells/ml. Cells were incubated on ice with TRA1-60-PE antibody (1:40, BD Biosciences), washed and analyzed using LSR II FACS (BD Biosciences) with FCS Express software (De Novo Software, Los Angeles, Calif.).
(§1) Mixed cell populations were cultured in 6-well plates and exposed to PluriSIn #1 for 48 hours. The cells were then analyzed by FACS analysis, using staining for the pluripotent marker TRA-1-60, and by fluorescence microscopy imaging of OCT4, as described in the Materials and Methods section.

[5] = test system: OCT4-expressing CSES2-SO2/3 cells; test: Fluorescence microscopy imaging of OCT4 in mixed cell populations; format: cell-based, human; conditions: 48 hours, mixed cell population
Procedure: High content imaging of CSES2-SO2/3 fluorescent cells (mCherry+ or EGFP+) was performed in black clear-bottom 384-well assay plates (Falcon BD), using the Opera high-content screen imaging platform (PerkinElmer). Otherwise, light and fluorescence imaging of all cells was performed in 24-well, 6-well or 10 cm CELLSTAR® plates (Greiner Bio-One), using an Olympus CellR imaging station. Light imaging of developing mouse embryos was performed in 35 mm culture dishes (Falcon BD), using an Olympus IX70 microscope.
as §1

H9 stem cells = test: Elimination of undifferentiated cells cultured in 6-well plates; format: cell-based, human; conditions: 20 μM
From the text: The PluriSIns were first tested in various culture conditions and exposure durations.

[6] = test system: undifferentiated stem-like glioma cells (SLGCs); test: Methylene blue viability, undifferentiated SLGCs; format: cell-based; conditions: up to 100 μM, 72 hours, 2% fetal bovine serum
Procedure: (§2) For the high-throughput screens, relative cell number was determined using a CellTiter-Glo® Luminescent Cell Viability Assay as described hereinabove. Otherwise, relative cell numbers were determined by fixating the cells with 0.5% glutardialdehyde and staining with methylene blue dissolved in 0.1 M boric acid (pH 8.5). Color extraction was performed using 0.1 M hydrochloric acid, and the staining (which is proportional to cell number) was quantified by measuring absorbance at a wavelength of 650 nm.
(§3) In a second experiment, undifferentiated stem-like glioma cells (SLGCs) were compared with SLGCs differentiated by monolayer adhesion and exposure to 1 μM retinoic acid for one week, in accordance with procedures described by Campos et al. [Clinical Cancer Research 16:2715-2728 (2010)]. Differentiation of SLGCs is associated with a reduction in tumorigenicity [Campos et al., Clinical Cancer Research 16:2715-2728 (2010)].
(§4) The differentiated and undifferentiated cells were exposed to PluriSIn #1 at concentrations of up to 100 μM for 72 hours under low (2%) fetal bovine serum conditions. Their viability was then measured using a methylene blue viability assay, as described hereinabove.

differentiated SLGCs = test: Methylene blue viability, differentiated SLGCs; format: cell-based; conditions: up to 100 μM, 72 hours, 2% fetal bovine serum
Procedure: as §2, §3, §4

Compound	expression of spliced isoform sXBP1, differentiated cells [1]	activation of caspase-3 [2]	effect on protein synthesis, differentiated cells (fibroblasts) [3]	pluripotent cells eliminated from culture (TRA-1-60 FACS) [4]	elimination of OCT4-expressing cells [5]	exposure required for complete elimination of undifferentiated cells (H9 stem cells) [h]	cytotoxicity towards undifferentiated SLGC [6]	effect on differentiated SLGCs (differentiated SLGCs)
CNC(=O)c1cccc(NC(=O)N2CCC(Oc3ccccc3Cl)CC2)c1 [A939572, 4-(2-chlorophenoxy)-N-(3-(methylcarbamoyl)-phenyl)piperidine-1-carboxamide, reference compound]	did not increase expression	–	–	–	–	–	–	–
O=C(NNc1ccccc1)c1ccncc1 [PluriSIn #1, isonicotinic acid N′-phenylhydrazide]	did not increase	enhanced activation of caspase-3	no effect	over 99%	eliminated almost all OCT4-expressing cells	48	highly cytotoxic	no apparent effect
